The test system of test [1] is 5×FAD transgenic (Tg) mice. As to the kind of experiment: Flow cytometry of Th1 cells and M1 microglia in brain homogenate. Particulars: 6-month-old 5×FAD mice, 50 mg/kg intraperitoneal every day for one month, versus vehicle. The format is in vivo, mouse.
Procedure: Animals. […] Mice were randomly assigned to different groups before treatment. […] The mouse brain was collected and stained for immune cell analysis and cytokine analysis. […] For OM1 treatment, at the age of 6.5 months, based on 450 mg b.i.d. (twice a day) in the phase III trial, Tg mice were treated with 100 mg/kg OM1 by oral administration once a day for one month. […] The brains and feces of the mice were then used for different analyses.
Flow cytometry sample preparation and analysis. Mice were anesthetized, blood samples were collected into EDTA-containing tubes, and red blood cells were removed using 1×red blood lysis buffer. Before tissue collection, the brains were perfused with ice-cold PBS to avoid sampling the circulating blood immune cells, and the brains were removed, chopped into pieces and dissected according to the introduction of the Adult Brain Dissociation Kit (Miltenyi, Cat No. 130-107-677) using the gentleMACS dissociator (Miltenyi Biotec). The brain homogenate was filtered through a 70-μm cell strainer and centrifuged at 300×g for 5 min at 4° C. The cell pellet was resuspended in cold PBS buffer and centrifuged again at 300×g for 5 min at 4° C. All samples were counted and adjusted to a density of 2-3×10^6/100 μL, labeled with a Live/Dead kit for 30 min, and then centrifuged at 500×g for 3 min at 4° C. The cells were resuspended in 100 μL PBS buffer, blocked with anti-CD16/32 (Biolegend, Cat No. 101320) for 10 min, and incubated with the antibody according to the manufacturers' protocols at 4° C. for 30 min. […]
Test [2] concerns the target T1, SLC7A5 (Mus musculus, UniProt Q9Z127).
T1 construct: endogenous in cells; host or cells: naive CD4+ T cells from splenocytes of C57BL/6 mice (Th0 / IL-12-induced Th1)
Briefly: Uptake of 13C-labelled phenylalanine by naive CD4+ T cells. The format is cell-based. Particulars: 0.5 h incubation. Here is the method: Uptake of phenylalanine. Naive CD4^+ T cells were separated from the splenocytes of 8-month-old C57BL/6 female mice using the Naive CD4^+ T cell Isolation Kit (Stem Cell, Cat No. 19765) and were induced to Th1 differentiation by 20 ng/mL IL-12. After 3 days, a total of 5×10^5 cells/well Th1 cells and Th0 cells in 0.5 mL of RPMI-1640 medium were plated into 48-well plates. ^13C-labelled phenylalanine and 5 mM amino transporter inhibitor BCH were added into indicated wells. After 0.5 h, cells were collected and washed twice with ice-cold D-PBS. 50 μL deionized water was added and cells were lysed through freezing and thawing twice at −80° C. The cell lysate was centrifuged at 12000×g for 10 min and ^13C-labelled phenylalanine in the supernatant was analyzed by Mass spectrometry.

The target of test [3] is LAT1 (Homo sapiens, UniProt Q01650). The settings on record: supplier description; cited from earlier work.
LAT1, sequence (Q01650 whole entry, species assumed): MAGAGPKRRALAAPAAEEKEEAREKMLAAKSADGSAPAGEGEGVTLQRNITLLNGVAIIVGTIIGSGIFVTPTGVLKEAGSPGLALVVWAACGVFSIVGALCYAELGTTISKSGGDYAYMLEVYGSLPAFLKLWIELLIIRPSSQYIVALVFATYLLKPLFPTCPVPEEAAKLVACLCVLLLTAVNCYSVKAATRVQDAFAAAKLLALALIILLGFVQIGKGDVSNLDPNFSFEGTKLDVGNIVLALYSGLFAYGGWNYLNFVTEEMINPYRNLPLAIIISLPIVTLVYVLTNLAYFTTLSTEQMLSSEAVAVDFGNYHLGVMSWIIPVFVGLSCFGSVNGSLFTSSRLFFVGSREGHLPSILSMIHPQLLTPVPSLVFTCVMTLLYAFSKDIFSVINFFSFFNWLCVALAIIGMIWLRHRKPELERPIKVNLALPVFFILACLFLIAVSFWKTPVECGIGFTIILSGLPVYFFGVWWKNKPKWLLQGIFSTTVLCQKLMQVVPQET
LAT1, sequence (P08195 102-630 partner, species assumed): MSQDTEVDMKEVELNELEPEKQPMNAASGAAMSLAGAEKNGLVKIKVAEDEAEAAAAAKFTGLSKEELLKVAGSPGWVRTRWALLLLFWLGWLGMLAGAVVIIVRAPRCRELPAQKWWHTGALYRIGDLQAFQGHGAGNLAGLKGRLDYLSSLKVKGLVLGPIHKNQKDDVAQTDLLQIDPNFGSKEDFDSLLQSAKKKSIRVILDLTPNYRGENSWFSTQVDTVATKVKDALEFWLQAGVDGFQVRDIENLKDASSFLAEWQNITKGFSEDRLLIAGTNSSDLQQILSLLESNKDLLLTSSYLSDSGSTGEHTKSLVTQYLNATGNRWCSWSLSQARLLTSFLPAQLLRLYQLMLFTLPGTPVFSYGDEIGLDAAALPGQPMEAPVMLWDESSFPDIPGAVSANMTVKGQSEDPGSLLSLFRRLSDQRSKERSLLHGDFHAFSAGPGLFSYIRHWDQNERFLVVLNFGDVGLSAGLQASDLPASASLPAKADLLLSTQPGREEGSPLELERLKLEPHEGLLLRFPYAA
Test [4] relates to naive CD4+ T cells. Briefly: In vitro differentiation and proliferation induced by phenylalanine and isoleucine. The format is cell-based, mouse. Particulars: amino acid added directly to naive CD4+ T cell culture; for Th1 cell proliferation: CellTrace. As to the method:
In Vitro differentiation and proliferation induced by phenylalanine and isoleucine. Naive CD4^+ T cells were separated from the splenocytes of 8-month-old C57BL/6 female mice using the Naive CD4^+ T cell Isolation Kit (Stem Cell, #19765), and the cells were stained with CellTrace (Thermo Fisher, #C34557). A total of 1×10^5 cells/well in 0.2 mL of RPMI-1640 medium were plated in 96-well plates, and the culture medium was supplemented with cytokines or blocking antibodies. Th0: 10 ng/mL mIL-2; Th1:10 ng/mL mIL-2, 5000 ng/mL 11B11. Phenylalanine (final concentration, 2 mmol/L), isoleucine (final concentration, 2 mmol/L) and OM1 (final concentration, 100 μg/mL) were added into the indicated wells, respectively. After incubation at 37° C. in 5% CO2 for 5 days, cells were acquired on a BD Fortessa cytometer, and data were analyzed using FlowJo software.

In test [5] the test system is C57 mice. Briefly: Intraperitoneal injection of phenylalanine and isoleucine, blood Th1 cells by FACS. The format is in vivo, mouse. Particulars: WT mice, intraperitoneal injection 50 mg/kg for 4 days. As to the method: Animals. Tg mice and co-housed WT mice (corresponding WT mice generated by mating Tg mice and C57 mice) were housed in the same cage after birth. WT mice (C57) were housed in separate cages to avoid cross-transfer of microbiota. All mice were kept in a 23° C. room with a 12-hour (h) light-dark cycle. Mice were randomly assigned to different groups before treatment. For time course analysis of Tg mice, male and female Tg mice were sacrificed at 2, 3, 5, 7 and 9 months of age. The mouse brain was collected and stained for immune cell analysis and cytokine analysis. Before the mice were sacrificed, feces were collected for gut microbiota analysis. For OM1 treatment, at the age of 6.5 months, based on 450 mg b.i.d. (twice a day) in the phase III trial, Tg mice were treated with 100 mg/kg OM1 by oral administration once a day for one month. Behavioral tests were performed to monitor cognitive activity after the last treatment. […] All mouse movements that occur in PhenoTyper (HomeCage) are recorded by a computerized tracking system, which calculates the time and number of entrances required to reach 80% of the performance standard (Noldus, Ethovision). […]
Flow cytometry sample preparation and analysis. […] All samples were counted and adjusted to a density of 2-3×10^6/100 μL, labeled with a Live/Dead kit for 30 min, and then centrifuged at 500×g for 3 min at 4° C. […]
A general note: In flow cytometry, cells or beads pass a laser one at a time.

SMILES strings stand for the structures. “Also recorded” adds a separate entry of the source.

T1 sequence (Q9Z127 whole entry): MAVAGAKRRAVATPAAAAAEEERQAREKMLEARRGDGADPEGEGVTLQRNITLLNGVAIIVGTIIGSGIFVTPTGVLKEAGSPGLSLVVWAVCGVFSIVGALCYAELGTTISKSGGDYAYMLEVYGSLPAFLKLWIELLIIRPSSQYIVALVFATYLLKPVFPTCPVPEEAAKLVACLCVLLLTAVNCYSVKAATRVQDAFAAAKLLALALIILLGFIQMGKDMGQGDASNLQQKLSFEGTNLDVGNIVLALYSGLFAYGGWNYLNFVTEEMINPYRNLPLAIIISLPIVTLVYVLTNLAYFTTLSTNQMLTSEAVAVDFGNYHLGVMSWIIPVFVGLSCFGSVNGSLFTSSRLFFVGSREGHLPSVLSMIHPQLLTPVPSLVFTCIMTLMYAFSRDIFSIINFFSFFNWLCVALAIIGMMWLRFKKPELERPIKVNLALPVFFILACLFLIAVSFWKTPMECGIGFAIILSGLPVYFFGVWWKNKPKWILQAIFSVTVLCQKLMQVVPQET
T1 sequence (P10852 whole entry partner): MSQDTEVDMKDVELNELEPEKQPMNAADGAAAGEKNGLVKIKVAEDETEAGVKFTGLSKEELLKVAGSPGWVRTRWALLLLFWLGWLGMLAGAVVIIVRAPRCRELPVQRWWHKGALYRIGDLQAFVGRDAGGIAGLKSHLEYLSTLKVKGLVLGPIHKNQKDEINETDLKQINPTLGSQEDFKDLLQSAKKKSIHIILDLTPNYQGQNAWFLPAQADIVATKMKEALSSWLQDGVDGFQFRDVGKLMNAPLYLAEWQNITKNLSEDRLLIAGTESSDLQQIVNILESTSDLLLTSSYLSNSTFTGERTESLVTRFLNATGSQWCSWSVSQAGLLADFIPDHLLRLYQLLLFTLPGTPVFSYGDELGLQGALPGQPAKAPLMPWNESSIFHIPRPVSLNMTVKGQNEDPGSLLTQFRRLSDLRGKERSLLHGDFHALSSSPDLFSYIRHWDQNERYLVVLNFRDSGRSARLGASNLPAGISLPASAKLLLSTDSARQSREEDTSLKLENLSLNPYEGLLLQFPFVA

As to `Nc1cc(COc2c(Cl)cc(C[C@H](N)C(=O)O)cc2Cl)c2oc(-c3ccccc3)nc2c1` [JPH 203], the “proportion of pro-inflammatory Th1 cells in the mouse brain” value was “significantly reduces the proportion of Th1 cells in the mouse brain” in test [1] (50 mg/kg) and “effectively inhibits the proportion of Th1 cells in the brain; also recorded: significantly downregulated the proportion of pro-inflammatory Th1 cells in the mouse brain” in test [1] (listed as JPH203, 50 mg/kg). Further, the “uptake of 13C-labelled phenylalanine by CD4+ T cells” value in test [2] is on record as “blocked”. Also, the LAT1 selectivity result in test [3] was “selectively inhibits LAT1”.

Turning to `N[C@@H](Cc1ccccc1)C(=O)O` [phenylalanine], in test [4], the “Th0 cell differentiation into Th1 cells” value was “increased” and the Th1 cell proliferation result was “increased”. Besides, the “Th1 cell count in the blood” value in test [5] is listed as “increased significantly”.

Turning to `CC[C@H](C)[C@H](N)C(=O)O` [isoleucine], in test [4], the “Th0 cell differentiation into Th1 cells” value was “increased” and the Th1 cell proliferation entry is listed as “increased”. Also, the “Th1 cell count in the blood” value in test [5] was “increased significantly”.

(Values after patent US20220273598A1, “METHOD FOR TREATING ALZHEIMER'S DISEASE BY INHIBITING UPTAKE OF AMINO ACIDS BY T CELLS” (SHANGHAI GREEN VALLEY PHARMACEUTICAL CO., LTD., priority 2019, published 2022).)
